From patent publication US20080171768A1, “Pharmaceutical Composition Containing An Anti Parasitic Agent And Active Ingredient Selected From Carveol, Thymol, Eugenol, Borneol, Carvacrol, Alpha-Ionone, Or Beta-Ionone” (ADVANCED SCIENTIFIC DEVELOPMENTS, priority 2005, published 2008)
Read-outs that look alike come from different tables or passages of the source.

Key:
[1] = system: Eimeria acervulina and Eimeria tenella; assay: Treatment of subclinical coccidiosis in broiler chickens (in vivo); set-up: species or system Eimeria acervulina and Eimeria tenella (in chickens); conditions: infected chickens, 5 days treatment in feed (salinomycin 40 mg/kg feed, carvacrol or thymol 75 mg/kg feed); for Weight gain (grams ± SD) Day 5: day 5, immediately after stopping treatment; for Weight gain (grams ± SD) Day 15: day 15, 10 days after stopping treatment
Experimental: These in vivo tests were designed to measure weight gain, consumption index, daily oocyst output and appearance of fecal matter in treated chickens.
The experiment was carried out on 200 chickens aged 22 days (average weight 620 g) afflicted with subclinical coccidiosis sampled from a group of 10,000 broiler chickens.
Subclinical coccidiosis was diagnosed on day 20. The mean oocyst output in the experimental animals was 50,000 oocysts/g (OPG).
The antiparasitic agent used is salinomycin, one of the most widely used antiparasitics for this type of infection. Two antiparasitic pharmaceutical compositions according to the invention were prepared by mixing salinomycin at different concentrations with carvacrol or thymol at a sub-inhibitory concentration of 75 mg/kg of feed.
Antiparasitic activity was also determined either with salinomycin alone, or with carvacrol alone or thymol alone. Antiparasitic activity was measured according to the conventional criteria for this type of infection: weight gain, consumption index, daily oocyst output and appearance of fecal matter. These criteria were measured on day 5 (immediately after stopping treatment) and on day 15 (10 days after stopping treatment).
The sample was subdivided into seven groups of […]:
Group 1: Uninfected, untreated animals (healthy controls). Mean weight on day 22: 750 g.
Group 2: Infected, untreated animals (affection controls).
Group 3: Infected animals treated with salinomycin at a dose of 40 mg/kg of feed. Group 4: Infected animals treated with carvacrol 75 mg/kg of feed.
Group 5: Infected animals treated with thymol 75 mg/kg of feed.
Group 6: Infected animals treated with salinomycin 40 mg/kg of feed potentiated by carvacrol 75 mg/kg of feed.
Group 7: Infected animals treated with salinomycin 40 mg/kg of feed potentiated by thymol 75 mg/kg of feed.
The antiparasitic agents used were mixed with this feed during the five days of treatment. The animals had free access to the feed throughout the experiment.

[2] = system: Plasmodium falciparum clones 3d7, HB3, Dd2 and 7G8; assay: In vitro IC50, growth of Plasmodium falciparum clones on human red blood cells (SybrGreen DNA fluorescence); format: cell-based
Experimental: The experiment was carried out with four clones (named 3d7, HB3, Dd2 and 7G8) of the malarial agent Plasmodium falciparum, a parasitic disease also known as malaria. These clones are laboratory reference models commonly used to screen drugs for antimalarial activity.
Plasmodium falciparum was grown on human red blood cells. The test was carried out in 96-well plates in which infected red blood cells (synchronized with sorbitol) were contacted with the different treatments for 72 hours at 37° C. in an incubator with controlled atmosphere (5% CO2, 1% O2, 94% N2). Growth of the pathogen was measured by quantifying fluorescent DNA in the presence of SybrGreen.
An antiparasitic pharmaceutical composition according to the invention was prepared by mixing artesunate at different concentrations with carvacrol or eugenol at sub-inhibitory concentrations of 0.05 mM and 0.2 mM, respectively. […] This pharmaceutical composition according to the invention was named artesunate P eugenol or artesunate P carvacrol, the letter P signifying potentiation by eugenol or carvacrol.
In each case, antiparasitic activity was determined either with artesunate alone, or with carvacrol alone, or with eugenol alone, or with the composition of the invention.
The IC50 was determined with Harald Noedl's HN NonLin V1.051 Beta software based on the fluorescence values.
The experiment was carried out with the same Plasmodium falciparum clones as in example 2 (3d7, HB3, Dd2 and 7G8), the first two clones (3d7 and HB3) being susceptible and the other two (Dd2 and 7G8) being resistant to chloroquine.
Chloroquine, one of the most widely used antiparasitic agents, is tested. […] This pharmaceutical composition was named chloroquine P eugenol, the letter P signifying potentiation by eugenol.
In each case, antiparasitic activity was determined either with chloroquine alone, or with eugenol alone, or with the composition of the invention.
The IC50 was determined as in example 2.
The experiment was carried out with the same Plasmodium falciparum clones as in examples 2 and 3 (3d7, HB3, Dd2 and 7G8), the first two clones (3d7 and HB3) being susceptible and the other two (Dd2 and 7G8) being resistant to […].
Mefloquine, one of the most widely used antiparasitic agents, is tested. […] This pharmaceutical composition according to the invention was named mefloquine P eugenol, the letter P signifying potentiation by eugenol.
In each case, antiparasitic activity was determined either with mefloquine alone, or with eugenol alone, or with the composition of the invention.
The IC50 was determined as in examples 2 and 3.

Plasmodium berghei ANKA = assay: Cerebral malaria model, CBA/J mice infected with Plasmodium berghei ANKA (in vivo)
Text: Here, the intrinsic antimalarial activity of carvacrol as well as artesunate potentiated by carvacrol was studied in vivo in an animal model of cerebral malaria (neuromalaria). The reference model for this type of infection makes use of CBA/J mice infected with Plasmodium berghei ANKA, an agent that causes cerebral malaria.
The intraperitoneal route was used for infection and treatment of the mice.
In this model, the onset of the first clinical signs occurs by day 4 or 5 (D4 or D5) after infection. Animals presenting these signs die in the next two days (D6 and D7).
The test was carried out on five groups of 10 mice as follows:
Group 1: Uninfected, untreated controls
Group 2: Infected mice treated with carvacrol (60 mg/kg of weight) twice a day every 12 hours
Group 3: Infected mice treated with carvacrol (40 mg/kg of weight) twice a day every 12 hours
Group 4: Infected mice treated with artesunate (40 mg/kg of weight) once a day
Group 5: Infected mice treated with artesunate (40 mg/kg of weight) once a day and with carvacrol (40 mg/kg of weight) twice a day.
Treatment commenced five days after infection (D5) and continued for three days (D5, D6, D7).

[3] = artesunate 40 mg/kg once a day, intraperitoneal, D5-D7
[4] = carvacrol 40 mg/kg twice a day (80 mg/kg/24 h), intraperitoneal, D5-D7
[5] = carvacrol 60 mg/kg twice a day (120 mg/kg/24 h), intraperitoneal, D5-D7

SMILES: CC[C@@H](C(=O)[C@@H](C)[C@@H](O)[C@H](C)[C@@H]1O[C@@H]([C@@H](CC)C(=O)O)CC[C@@H]1C)[C@H]1O[C@]2(C=C[C@@H](O)[C@]3(CC[C@@](C)([C@H]4CC[C@](O)(CC)[C@H](C)O4)O3)O2)[C@H](C)C[C@@H]1C [Salinomycin, salinomycin, reference compound]
- Consumption index Day 5 [1]: 2.2
- Fecal appearance Day 5 [1]: Diarrheal
- Oocyst output (OPG ± SD) Day 5 [1]: 110,000 ± 6700 OPG
- Weight gain (grams ± SD) Day 5 [1]: 182 ± 28 grams
- Consumption index Day 15 [1]: 2.9
- Fecal appearance Day 15 [1]: Diarrheal
- Oocyst output (OPG ± SD) Day 15 [1]: 164,000 ± 7200 OPG
- Weight gain (grams ± SD) Day 15 [1]: 835 ± 44 grams

SMILES: Cc1ccc(C(C)C)c(O)c1 [Thymol, thymol]
- Consumption index Day 5 [1]: 2.45
- Fecal appearance Day 5 [1]: Diarrheal
- Oocyst output (OPG ± SD) Day 5 [1]: 98,000 ± 4200 OPG
- Weight gain (grams ± SD) Day 5 [1]: 180 ± 52 grams
- Consumption index Day 15 [1]: 3.3
- Fecal appearance Day 15 [1]: Diarrheal
- Oocyst output (OPG ± SD) Day 15 [1]: 136,000 ± 6500 OPG
- Weight gain (grams ± SD) Day 15 [1]: 840 ± 45 grams

SMILES: C[C@H]1[C@H](OC(=O)CCC(=O)O)O[C@@H]2O[C@@]3(C)CC[C@H]4[C@H](C)CC[C@@H]1[C@@]24OO3 [artesunate]
- IC50 ([2]; Plasmodium falciparum, Erythrocyte, 72 h, read-out: IC50 artesunate alone, Clone 3d7): 0.00214 µM
- IC50 ([2]; Plasmodium falciparum, Erythrocyte, 72 h, read-out: IC50 artesunate alone, Clone 7G8): 0.001 µM
- IC50 ([2]; Plasmodium falciparum, Erythrocyte, 72 h, read-out: IC50 artesunate alone, Clone Dd2): 0.00266 µM
- IC50 ([2]; Plasmodium falciparum, Erythrocyte, 72 h, read-out: IC50 artesunate alone, Clone HB3): 0.00228 µM
- IC50 ([2]; read-out: IC50 artesunate alone, Clone 7G8, 72 hours): 0.00125 µM
- % mortality (Plasmodium berghei ANKA; [3]): 100%
- Survival time of animals that died (Plasmodium berghei ANKA; [3]): 7 days
- protection of treated animals (in words) (Plasmodium berghei ANKA; artesunate alone 40 mg/kg/24 h): does not provide any protection

SMILES: Cc1ccc(C(C)C)cc1O [carvacrol]
- Consumption index Day 5 [1]: 2.4
- Fecal appearance Day 5 [1]: Diarrheal
- Oocyst output (OPG ± SD) Day 5 [1]: 105,000 ± 5900 OPG
- Weight gain (grams ± SD) Day 5 [1]: 176 ± 32 grams
- Consumption index Day 15 [1]: 3
- Fecal appearance Day 15 [1]: Diarrheal
- Oocyst output (OPG ± SD) Day 15 [1]: 147,000 ± 4300 OPG
- Weight gain (grams ± SD) Day 15 [1]: 812 ± 51 grams
- IC50 ([2]; Plasmodium falciparum, Erythrocyte, 72 h, read-out: IC50 carvacrol alone, Clone 3d7): 330 µM
- IC50 ([2]; Plasmodium falciparum, Erythrocyte, 72 h, read-out: IC50 carvacrol alone, Clone 7G8): 110 µM
- IC50 ([2]; Plasmodium falciparum, Erythrocyte, 72 h, read-out: IC50 carvacrol alone, Clone Dd2): 160 µM
- IC50 ([2]; Plasmodium falciparum, Erythrocyte, 72 h, read-out: IC50 carvacrol alone, Clone HB3): 220 µM
- protection of treated animals (in words) (Plasmodium berghei ANKA; carvacrol 40 mg/kg twice a day (80 mg/kg/24 h)): does not afford any protection
- % mortality (Plasmodium berghei ANKA; [4]): 100%
- Survival time of animals that died (Plasmodium berghei ANKA; [4]): 7.5 days
- % survivor at D12 (Plasmodium berghei ANKA; [5]): 80%
- Survival time of animals that died (Plasmodium berghei ANKA; [5]): 7.5 days
- % mortality (Plasmodium berghei ANKA; carvacrol 60 mg/kg twice a day (120 mg/kg/24 h), intraperitoneal, D5-D7 after infection): 20%

SMILES: CCN(CC)CCCC(C)Nc1ccnc2cc(Cl)ccc12 (stereo not drawn) [chloroquine]
- IC50 ([2]; Plasmodium falciparum, Erythrocyte, 72 h, read-out: IC50 chloroquine alone, Clone 3d7 (susceptible to chloroquine)): 0.0223 µM
- IC50 ([2]; Plasmodium falciparum, Erythrocyte, 72 h, read-out: IC50 chloroquine alone, Clone 7G8 (resistant to chloroquine)): 0.445 µM
- IC50 ([2]; Plasmodium falciparum, Erythrocyte, 72 h, read-out: IC50 chloroquine alone, Clone Dd2 (resistant to chloroquine)): 0.494 µM
- IC50 ([2]; Plasmodium falciparum, Erythrocyte, 72 h, read-out: IC50 chloroquine alone, Clone HB3 (susceptible to chloroquine)): 0.0371 µM

SMILES: C=CCc1ccc(O)c(OC)c1 [eugenol]
- IC50 ([2]; Plasmodium falciparum, Erythrocyte, 72 h, read-out: IC50 eugenol alone, Clone 3d7): 1250 µM
- IC50 ([2]; Plasmodium falciparum, Erythrocyte, 72 h, read-out: IC50 eugenol alone, Clone 7G8): 400 µM
- IC50 ([2]; Plasmodium falciparum, Erythrocyte, 72 h, read-out: IC50 eugenol alone, Clone Dd2): 660 µM
- IC50 ([2]; Plasmodium falciparum, Erythrocyte, 72 h, read-out: IC50 eugenol alone, Clone HB3): 660 µM

SMILES: OC(c1cc(C(F)(F)F)nc2c(C(F)(F)F)cccc12)C1CCCCN1 (stereo not drawn) [mefloquine]
- IC50 ([2]; Plasmodium falciparum, Erythrocyte, 72 h, Clone 3d7 (susceptible to mefloquine), read-out: IC50 mefloquine alone): 0.00883 µM
- IC50 ([2]; Plasmodium falciparum, Erythrocyte, 72 h, Clone 7G8 (resistant to mefloquine), read-out: IC50 mefloquine alone): 0.0153 µM
- IC50 ([2]; Plasmodium falciparum, Erythrocyte, 72 h, Clone Dd2 (resistant to mefloquine), read-out: IC50 mefloquine alone): 0.0338 µM
- IC50 ([2]; Plasmodium falciparum, Erythrocyte, 72 h, Clone HB3 (susceptible to mefloquine), read-out: IC50 mefloquine alone): 0.00896 µM
